Literature values in patent US20090291974A1, “BOSENTAN SALTS” (priority 2008, published 2009).

Key:
[1] = not given; remark: listed apart in the source
[2] = acidic and basic centers, overall value

| SMILES | solubility in acetone (acetone) | solubility in dichloromethane (dichloromethane) | solubility in ethanol (ethanol) | solubility in ethyl acetate (ethyl acetate) | solubility in hexane (hexane) | solubility in isopropanol (isopropanol) | solubility in methanol (methanol) | solubility in aqueous solution at pH 1.1 ([1]; aqueous solution, pH 1.1) [mg/100 ml] | solubility in aqueous solution at pH 4.0 ([1]; aqueous solution, pH 4.0) [mg/100 ml] | solubility in aqueous solution at pH 5.0 ([1]; aqueous solution, pH 5.0) [mg/100 ml] | solubility in aqueous solution at pH 7.5 ([1]; aqueous solution, pH 7.5) [mg/100 ml] | solubility in water ([1]; water) [mg/100 ml] | overall pKa [2] |
| --- | --- | --- | --- | --- | --- | --- | --- | --- | --- | --- | --- | --- | --- |
| COc1ccccc1Oc1c(NS(=O)(=O)c2ccc(C(C)(C)C)cc2)nc(-c2ncccn2)nc1OCCO [Bosentan monohydrate, bosentan monohydrate] | freely soluble | freely soluble | soluble | soluble | very slightly soluble | slightly soluble | slightly soluble |  |  |  |  |  |  |
| COc1ccccc1Oc1c(NS(=O)(=O)c2ccc(C(C)(C)C)cc2)nc(-c2ncccn2)nc1OCCO [Bosentan] |  |  |  |  |  |  |  | 0.1 | 0.1 | 0.2 | 43 | 1.0 | 5.46 |
